We go through 25 molecules from US20100113421A1, “NON-NUCLEOSIDE REVERSE TRANSCRIPTASE INHIBITORS” (priority 2006, published 2010).

The test system of this assay is HIV strain containing the Y181C mutation. The assay can be described thus: Spread assay, Y181C mutant strain. Type of assay: cell-based. As to conditions: Human immunodeficiency virus 1; spread assay, 10% FBS, Y181C mutant strain; read-out: CIC95. The procedure: Assays for the inhibition of acute HIV-1 infection of T-lymphoid cells (alternatively referred to herein as the “spread assay”) were conducted in accordance with Vacca, J. P. et al., Proc. Natl. Acad. Sci. USA 1994, 91: 4096. The assays (using 10% FBS) tested for inhibition of wild type HIV-1 and of HIV strains containing the Y181C or K103N mutation. […] (Note that the compound of Example 6 was tested only up to a 833 nM concentration and the CIC95 value was determined to be >833 nM. The compound of Example 78 was not tested in the Y1818C assay.) The compounds of Examples 1 to 119 (including Examples 70A and 70B) had CIC95 values of less than 1000 nanomolar in the assay employing the K103N mutant strain. In an analogous assay employing a mutant strain containing both the K103N and Y181C mutations, the compounds of Examples 70A, 70B and 78-115 had CIC95 values of less than 1000 nanomolar.

SMILES strings stand for the structures. Bounds are passed on as bounds.

Regarding `Cc1cc(C)cc(S(=O)(=O)c2c(C(N)=O)[nH]c(C(=O)N(C)Cc3ccc(Cl)cc3F)c2C)c1` [Example 26, N-(4-chloro-2-fluorobenzyl)-N,3-dimethyl-4-(3,5-dimethylphenylsulfonyl)-1H-pyrrole-2,5-dicarboxamide], the IC95 is less than 8 µM.
`Cc1cc(C)cc(S(=O)(=O)c2c(C(N)=O)[nH]c(C(=O)N(C)Cc3ccc(Cl)cc3Cl)c2C)c1` [Example 27, N-(2,4-dichlorobenzyl)-N,3-dimethyl-4-(3,5-dimethylphenylsulfonyl)-1H-pyrrole-2,5-dicarboxamide]: the IC95 is less than 8 µM.
As for `Cc1c(C(=O)N(C)Cc2ccccc2)[nH]c(C(N)=O)c1S(=O)(=O)c1cc(F)cc(Cl)c1` [Example 28, N-benzyl-N,3-dimethyl-4-(3-chloro-5-fluorophenylsulfonyl)-1H-pyrrole-2,5-dicarboxamide], the IC95 is less than 8 µM.
Turning to `Cc1c(C(=O)N(C)Cc2ccccc2F)[nH]c(C(N)=O)c1S(=O)(=O)c1cc(F)cc(Cl)c1` [Example 29, N-(2-fluorobenzyl)-N,3-dimethyl-4-(3-chloro-5-fluorophenylsulfonyl)-1H-pyrrole-2,5-dicarboxamide], the IC95 is less than 8 µM.
For `Cc1c(C(=O)N(C)Cc2ccccc2Cl)[nH]c(C(N)=O)c1S(=O)(=O)c1cc(F)cc(Cl)c1` [Example 30, N-(2-chlorobenzyl)-N,3-dimethyl-4-(3-chloro-5-fluorophenylsulfonyl)-1H-pyrrole-2,5-dicarboxamide], the IC95 is less than 8 µM.
Regarding `Cc1c(C(=O)N(C)Cc2ccc(Cl)cc2F)[nH]c(C(N)=O)c1S(=O)(=O)c1cc(F)cc(Cl)c1` [Example 31, N-(4-chloro-2-fluorobenzyl)-N,3-dimethyl-4-(3-chloro-5-fluorophenylsulfonyl)-1H-pyrrole-2,5-dicarboxamide], the IC95 was less than 8 µM.
Consider `Cc1c(C(=O)N(C)Cc2ccccc2)[nH]c(C(N)=O)c1S(=O)(=O)c1cc(Cl)cc(Cl)c1` [Example 32, N-benzyl-N,3-dimethyl-4-(3,5-dichlorophenylsulfonyl)-1H-pyrrole-2,5-dicarboxamide], for which the IC95 was less than 8 µM.
In the case of `Cc1c(C(=O)N(C)Cc2ccccc2F)[nH]c(C(N)=O)c1S(=O)(=O)c1cc(Cl)cc(Cl)c1` [Example 33, N-(2-fluorobenzyl)-N,3-dimethyl-4-(3,5-dichlorophenylsulfonyl)-1H-pyrrole-2,5-dicarboxamide], the IC95 was less than 8 µM.
Regarding `Cc1c(C(=O)N(C)Cc2ccccc2Cl)[nH]c(C(N)=O)c1S(=O)(=O)c1cc(Cl)cc(Cl)c1` [Example 34, N-(2-chlorobenzyl)-N,3-dimethyl-4-(3,5-dichlorophenylsulfonyl)-1H-pyrrole-2,5-dicarboxamide], the IC95 was less than 8 µM.
With `Cc1c(C(=O)N(C)Cc2ccc(Cl)cc2F)[nH]c(C(N)=O)c1S(=O)(=O)c1cc(Cl)cc(Cl)c1` [Example 35, N-(4-chloro-2-fluorobenzyl)-N,3-dimethyl-4-(3,5-dichlorophenylsulfonyl)-1H-pyrrole-2,5-dicarboxamide], the IC95 is less than 8 µM.
Consider `COc1cccc(CN(C)C(=O)c2[nH]c(C(N)=O)c(S(=O)(=O)c3ccccc3)c2C)c1` [Example 36, N-(3-methoxyobenzyl)-N,3-dimethyl-4-(phenylsulfonyl)-1H-pyrrole-2,5-dicarboxamide], for which the IC95 was less than 8 µM.
For the molecule `Cc1c(C(=O)N(C)Cc2ccsc2)[nH]c(C(N)=O)c1S(=O)(=O)c1ccccc1` [Example 38, N,3-dimethyl-4-(phenylsulfonyl)-N-(3-thienylmethyl)-1H-pyrrole-2,5-dicarboxamide], the IC95 was less than 8 µM.
With `Cc1c(C(=O)N(C)Cc2ccncc2Cl)[nH]c(C(N)=O)c1S(=O)(=O)c1ccccc1` [Example 39, N-[(3-chloro-4-pyridinyl)methyl]-N,3-dimethyl-4-(phenylsulfonyl)-1H-pyrrole-2,5-dicarboxamide], the IC95 is less than 8 µM.
For the molecule `Cc1cc(C)cc(S(=O)(=O)c2c(C(N)=O)[nH]c(C(=O)N(C)Cc3ccc4ncccc4c3)c2C)c1` [Example 40, 4-[(3,5-Dimethylphenyl)sulfonyl]-N,3-dimethyl-N-(6-quinolinylmethyl)-1H-pyrrole-2,5-dicarboxamide], the IC95 was less than 8 µM.
For `Cc1c(C(=O)N(C)Cc2cc3cccnc3cc2Cl)[nH]c(C(N)=O)c1S(=O)(=O)c1ccccc1` [Example 41, N-[(7-Chloro-6-quinolinyl)methyl]-N,3-dimethyl-4-(phenylsulfonyl)-1H-pyrrole-2,5-dicarboxamide], the IC95 was less than 8 µM.
With `Cc1c(C(=O)N(C)Cc2ccc3ncccc3c2Cl)[nH]c(C(N)=O)c1S(=O)(=O)c1ccccc1` [Example 42, N-[(5-Chloro-6-quinolinyl)methyl]-N,3-dimethyl-4-(phenylsulfonyl)-1H-pyrrole-2,5-dicarboxamide] the figure was less than 8 µM.
On to `Cc1c(C(=O)N(C)Cc2ccc3ncccc3c2)[nH]c(C(N)=O)c1S(=O)(=O)c1ccccc1` [Example 43], for which the IC95 is less than 8 µM.
Consider `Cc1cccc(S(=O)(=O)c2c(C(N)=O)[nH]c(C(=O)N(C)Cc3ccc4ncccc4c3)c2C)c1` [Example 44], for which the IC95 is less than 8 µM.
With `Cc1c(C(=O)N(C)Cc2ccc3ncccc3c2)[nH]c(C(N)=O)c1S(=O)(=O)c1cccc(F)c1` [Example 45] the figure was less than 8 µM; with `Cc1c(C(=O)N(C)Cc2ccc3ncccc3c2)[nH]c(C(N)=O)c1S(=O)(=O)c1cccc(C(F)(F)F)c1` [Example 46, N,3-dimethyl-N-(6-quinolinylmethyl)-4-{[3-(trifluoromethyl)phenyl]sulfonyl}-1H-pyrrole-2,5-dicarboxamide], less than 8 µM; with `Cc1cc(C)cc(S(=O)(=O)c2c(C(N)=O)[nH]c(C(=O)N(C)Cc3ccc4ncccc4c3Cl)c2C)c1` [Example 47, N-[(5-chloro-6-quinolinyl)methyl]-4-[(3,5-dimethylphenyl)sulfonyl]-N,3-dimethyl-1H-pyrrole-2,5-dicarboxamide], less than 8 µM.
In the case of `Cc1cc(C)cc(S(=O)(=O)c2c(C(N)=O)[nH]c(C(=O)N(C)Cc3cc4cccnc4cc3Cl)c2C)c1` [Example 48, N-[(7-chloro-6-quinolinyl)methyl]-4-[(3,5-dimethylphenyl)sulfonyl]-N,3-dimethyl-1H-pyrrole-2,5-dicarboxamide], the IC95 was less than 8 µM.
As to `Cc1c(C(=O)N(C)Cc2ccc3ncccc3c2Cl)[nH]c(C(N)=O)c1S(=O)(=O)c1cc(F)cc(F)c1` [Example 49, N-[(5-chloro-6-quinolinyl)methyl]-4-[(3,5-difluorophenyl)sulfonyl]-N,3-dimethyl-1H-pyrrole-2,5-dicarboxamide], the IC95 was less than 8 µM.
Consider `Cc1c(C(=O)N(C)Cc2cc3cccnc3cc2Cl)[nH]c(C(N)=O)c1S(=O)(=O)c1cc(F)cc(F)c1` [Example 50, N-[(7-chloro-6-quinolinyl)methyl]-4-[(3,5-difluorophenyl)sulfonyl]-N,3-dimethyl-1H-pyrrole-2,5-dicarboxamide], for which the IC95 was less than 8 µM.
For the molecule `Cc1c(C(=O)N(C)Cc2ccc3ncccc3c2)[nH]c(C(N)=O)c1S(=O)(=O)c1cc(F)cc(Cl)c1` [Example 51, 4-[(3-chloro-5-fluorophenyl)sulfonyl]-N,3-dimethyl-N-(6-quinolinylmethyl)-1H-pyrrole-2,5-dicarboxamide], the IC95 was less than 8 µM.
